Values of other authors as cited in patent US20250032463A1, “RAPAMYCIN-CONTAINING PHARMACEUTICAL COMPOSITION” (NOBELPHARMA CO., LTD., priority 2023, published 2025).

In the case of `CO[C@H]1C[C@@H]2CC[C@@H](C)[C@@](O)(O2)C(=O)C(=O)N2CCCC[C@H]2C(=O)O[C@H]([C@H](C)C[C@@H]2CC[C@@H](O)[C@H](OC)C2)CC(=O)[C@H](C)/C=C(\C)[C@@H](O)[C@@H](OC)C(=O)[C@H](C)C[C@H](C)/C=C/C=C/C=C/1C` [rapamycin, Rapamycin], the “stability in aqueous solvents” value is given as “unstable”.
